Literature values as cited in US10307140B2, “Device for detection of hepatocellar carcinoma (HCC) using an octanoate breath test” (EXALENZ BIOSCIENCE LTD., priority 2011, dated 2019).
Read-outs that look alike come from different tables or passages of the source.

Test system: liver mitochondria
Details: HCC patients

For `CC(C)CC(=O)C(=O)O` [KICA, ketoisocaproate], the “change of ketoisocaproate decarboxylation” value (after RFA, P<0.05) is listed as −27% and the “change of ketoisocaproate decarboxylation” value (after TACE) is listed as “unaffected”.
